{"source": "patent US9644010B2", "about": "“LY6K epitope peptides for TH1 cells and vaccines containing the same” (ONCOTHERAPY SCIENCE, INC., priority 2012, dated 2017)", "test_system": "LY6K-LP specific Th cells", "assay": "Recognition of autologous DCs loaded with recombinant LY6K protein by LP-specific Th cells, IFN-gamma ELISPOT", "type": "cell-based, human", "description": "The human LY6K-derived short peptide (SP) that bind to HLA-A24, LY6K-A24 (177-186), RYCNLEGPPI (SEQ ID NO: 3) was synthesized (purity>95%, Biomatik, Canada). Two LP, LY6K (119-142), […] (SEQ ID NO: 1); LY6K (172-191) […] (SEQ ID NO: 2), were synthesized (purity>90%) and tested for their capacity to stimulate LY6K-specific human CD4^+ T cells. A HIV peptide that binds to HLA-A24 (HIV-A24, RYLRDQQLL) (SEQ ID NO: 4) was used as negative control SP (Tomita Y, et al. Cancer Sci; 102: 697-705. Tomita Y, et al. Cancer Sci; 102: 71-8.). A EBNA (Epstein-Barr virus nuclear antigen)-derived LP that binds to DP5, EBNA-DP5 (FLQTHIFAEVLKDAIKDL) (SEQ ID NO: 5) and promiscuous HIV-derived LP were used as a negative control LP (Fujiki F, et al. J Immunother 2007; 30: 282-93.). Peptides were dissolved in dimethyl-sulfoxide at the concentration of 10 micro-g/microL. The recombinant whole LY6K and CDCA1 protein were expressed by Escherichia coli BL21 with a pET28a vector (Novagen). The CDCA1 protein was used as a control. Each recombinant protein was purified and assessed by SDS-PAGE.\nThe present inventors proceeded to assess whether DCs take up and process the LY6K protein to stimulate LY6K-LP specific Th cells. […]"}
{"sequence": "KCCKIRYCNLEGPPINSSVF [LY6K (172-191)]", "values": [{"measurement": "natural processing and presentation of epitope from LY6K protein-loaded DCs", "value": "naturally processed and presented by HLA-DR15 and HLA-DQ molecules"}]}
